Measurements reported in patent US5925769A, “Acetylenic 1,5-diarylpyrazoles as antiinflammatory agents” (Ortho Pharmaceutical, Corp., priority 1998, dated 1999).

Experiments:
[1] = molecular target: T1, Sheep seminal vesicle (SSV) cyclooxygenase (Ovis aries, UniProt P05979); assay: Procedure I: inhibition of sheep seminal vesicle (SSV) cyclooxygenase; assay type: biochemical; conditions: SSV cyclooxygenase; read-out: Proc. I IC50
T1 construct: Sheep seminal vesicle (SSV) cyclooxygenase (95% pure); purchased Biomol (Plymouth Meeting, PA); host or cells: sheep seminal vesicle
T1 sequence (P05979 25-600): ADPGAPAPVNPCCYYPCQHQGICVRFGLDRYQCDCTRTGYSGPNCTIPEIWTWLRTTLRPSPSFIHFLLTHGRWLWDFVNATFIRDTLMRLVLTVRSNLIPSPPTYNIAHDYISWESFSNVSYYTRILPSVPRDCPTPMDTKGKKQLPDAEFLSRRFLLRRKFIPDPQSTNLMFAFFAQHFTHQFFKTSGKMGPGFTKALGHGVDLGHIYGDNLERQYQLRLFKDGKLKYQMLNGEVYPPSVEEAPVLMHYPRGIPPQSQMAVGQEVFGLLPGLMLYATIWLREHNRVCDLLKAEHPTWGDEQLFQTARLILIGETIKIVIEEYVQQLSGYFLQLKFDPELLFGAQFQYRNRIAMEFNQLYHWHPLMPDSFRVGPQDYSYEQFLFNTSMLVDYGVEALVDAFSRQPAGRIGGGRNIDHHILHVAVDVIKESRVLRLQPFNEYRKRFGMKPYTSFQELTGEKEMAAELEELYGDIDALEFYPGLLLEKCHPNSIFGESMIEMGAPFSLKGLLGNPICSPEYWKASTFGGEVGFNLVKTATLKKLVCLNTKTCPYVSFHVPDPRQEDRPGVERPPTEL
Outline: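 Turnover of [1-14C]-arachidonic acid by SSV cyclooxygenase ran 20 min after a 5 min preincubation at 37° C with test compound. Products (PGD2, PGE2, etc.) were extracted, resolved by TLC and quantified by radio-imaging; inhibition came from comparing curve areas with and without compound.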

CO = molecular target: T2, CO (Rattus norvegicus, UniProt Q63921); assay: Procedure II: CO activity in broken RBL-1 cells (homogenate supernatant); assay type: biochemical; conditions: RBL-1 broken cell supernatant; read-out: Proc. II CO IC50
T2 construct: the supernatant was saved as the source of enzymes; endogenous in cells; host or cells: RBL-1 (rat basophilic leukemia) cells
T2 sequence (Q63921 27-602): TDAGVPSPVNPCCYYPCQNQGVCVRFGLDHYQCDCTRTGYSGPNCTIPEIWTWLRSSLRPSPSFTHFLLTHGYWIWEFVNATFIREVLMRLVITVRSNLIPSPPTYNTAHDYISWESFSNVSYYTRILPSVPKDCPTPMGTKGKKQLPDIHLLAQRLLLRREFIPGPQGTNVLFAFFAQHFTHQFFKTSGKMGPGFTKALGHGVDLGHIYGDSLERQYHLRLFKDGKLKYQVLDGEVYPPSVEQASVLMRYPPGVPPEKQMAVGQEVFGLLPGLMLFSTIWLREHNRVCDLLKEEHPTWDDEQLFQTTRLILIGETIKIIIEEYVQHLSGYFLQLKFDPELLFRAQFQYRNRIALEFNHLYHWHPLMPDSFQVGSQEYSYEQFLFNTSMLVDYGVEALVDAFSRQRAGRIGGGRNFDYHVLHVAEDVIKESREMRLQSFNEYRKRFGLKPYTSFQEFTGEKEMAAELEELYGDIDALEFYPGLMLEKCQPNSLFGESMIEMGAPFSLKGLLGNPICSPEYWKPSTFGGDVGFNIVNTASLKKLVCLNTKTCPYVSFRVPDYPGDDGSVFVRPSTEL
Outline: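 Supernatant from rat RBL-1 homogenate (9,220×g) was pre-incubated 5 min at 37 °C with 2 mM CaCl2 and compound or 1% DMSO, then with 1-^14C-arachidonic acid for 20 min at 37 °C.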

5-LO = assay: Procedure IV: ex vivo eicosanoid synthesis assay using dogs, 5-LO (LTB4); assay type: in vivo; conditions: dog, oral, 5 mg/kg
Procedure: Adult beagle or mongrel dogs (10-15 kg) of either sex were fasted overnight prior to the initiation of each experiment. The forelimb was clipped and swabbed with an alcohol prep (70% isopropanol). Blood was drawn by venipuncture into syringes containing lithium heparin (Starstead, Newton, N.C.) immediately prior to administration of compound or vehicle and then at various intervals following dosing. The test compound was administered orally as a suspension in 0.5% methocel. At various times after dosing, blood samples were drawn and placed on an electric rocker platform to assure complete and continuous mixing. White blood cell (wbc) counts were performed using a Sysmex hematology analyzer. This was done in an effort to normalize the number of leukocytes to be stimulated with calcium ionophore. A 1.0 mL aliquot of whole blood was challenged with 50 μL of a 2.6×10^-5 M solution of calcium ionophore A23187 (Calbiochem, La Jolla, Calif.) prepared in DMSO and diluted in HBSS. After a 15 minute incubation at 37° C., the reaction was stopped by placing the samples in an ice bath (4° C.) for 5 minutes and then centrifuging at 11,000×g for 5 minutes to separate the plasma fraction from blood cells. The plasma fraction was removed, diluted in an appropriate buffer, and analyzed for the presence of LTB4 and TxB2 by standard RIA techniques.

SMILES: COc1ccc(-n2nc(C#CCN(O)C(N)=O)cc2-c2ccc(C)cc2)cc1 [Cpd 1, N-Hydroxy-N-(1(1-(4-methoxyphenyl)-5-(4-methylphenyl)pyrazol-3-yl)-1-propyn-3-yl)urea]
- IC50 [1]: 1020 nM
- IC50 (CO): 310 nM
- % inh 5-LO (5-LO; 1 h): 56%
- % inh 5-LO (5-LO; 2 h): 53%
- % inh 5-LO (5-LO; 4 h): 32%
- % inh 5-LO (5-LO; 8 h): 15%
- % inh 5-LO (5-LO; 24 h): 10%
